The text below walks through data of patent US12083124B2 (Incyte Corporation, priority 2019, dated 2024).

Like-named read-outs stand apart in the source and are kept apart here.

The target in test [1] is wild-type un-phosphorylated FGFR3 (Homo sapiens, UniProt P22607). As to the kind of experiment: FGFR Enzymatic Assay (FRET peptide phosphorylation), FGFR3.
For test [2], the target named is wild-type un-phosphorylated FGFR1 (Homo sapiens, UniProt P11362). As to the kind of experiment: FGFR Enzymatic Assay (FRET peptide phosphorylation), FGFR1. To be noted: pre-incubated for 4 hours.
Test [3] has as its target wild-type un-phosphorylated FGFR2 (Homo sapiens, UniProt P21802). Kind of test: FGFR Enzymatic Assay (FRET peptide phosphorylation), FGFR2.
[4] abbreviates: FGFR1, wild-type un-phosphorylated FGFR1.
Setting [5] is: read-out: FGFR1, wild-type un-phosphorylated FGFR1.
The mark [6] stands for this setting: read-out: FGFR2, wild-type un-phosphorylated FGFR2, pre-incubated for 4 hours.

wild-type un-phosphorylated FGFR1, sequence (P11362 22-822): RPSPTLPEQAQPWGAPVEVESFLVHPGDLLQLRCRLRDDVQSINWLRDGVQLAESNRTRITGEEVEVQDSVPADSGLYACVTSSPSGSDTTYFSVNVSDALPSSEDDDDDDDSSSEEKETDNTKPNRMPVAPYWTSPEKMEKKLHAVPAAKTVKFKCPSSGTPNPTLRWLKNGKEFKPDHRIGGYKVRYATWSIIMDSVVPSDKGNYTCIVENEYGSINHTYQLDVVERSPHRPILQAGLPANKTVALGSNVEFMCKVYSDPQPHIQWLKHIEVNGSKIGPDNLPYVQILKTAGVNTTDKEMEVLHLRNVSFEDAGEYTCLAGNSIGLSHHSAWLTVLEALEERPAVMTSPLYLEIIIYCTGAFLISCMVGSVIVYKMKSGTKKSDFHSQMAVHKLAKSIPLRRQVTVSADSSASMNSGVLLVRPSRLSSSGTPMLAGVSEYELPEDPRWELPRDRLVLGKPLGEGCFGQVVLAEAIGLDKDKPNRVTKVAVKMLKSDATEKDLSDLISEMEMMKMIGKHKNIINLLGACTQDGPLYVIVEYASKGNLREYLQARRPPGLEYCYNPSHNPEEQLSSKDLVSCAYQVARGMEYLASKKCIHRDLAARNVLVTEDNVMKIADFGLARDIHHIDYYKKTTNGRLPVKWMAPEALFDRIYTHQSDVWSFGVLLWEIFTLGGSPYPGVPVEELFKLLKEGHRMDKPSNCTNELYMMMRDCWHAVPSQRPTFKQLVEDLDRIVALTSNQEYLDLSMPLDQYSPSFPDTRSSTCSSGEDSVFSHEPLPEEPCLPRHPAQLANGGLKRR
wild-type un-phosphorylated FGFR3, sequence (P22607 23-806): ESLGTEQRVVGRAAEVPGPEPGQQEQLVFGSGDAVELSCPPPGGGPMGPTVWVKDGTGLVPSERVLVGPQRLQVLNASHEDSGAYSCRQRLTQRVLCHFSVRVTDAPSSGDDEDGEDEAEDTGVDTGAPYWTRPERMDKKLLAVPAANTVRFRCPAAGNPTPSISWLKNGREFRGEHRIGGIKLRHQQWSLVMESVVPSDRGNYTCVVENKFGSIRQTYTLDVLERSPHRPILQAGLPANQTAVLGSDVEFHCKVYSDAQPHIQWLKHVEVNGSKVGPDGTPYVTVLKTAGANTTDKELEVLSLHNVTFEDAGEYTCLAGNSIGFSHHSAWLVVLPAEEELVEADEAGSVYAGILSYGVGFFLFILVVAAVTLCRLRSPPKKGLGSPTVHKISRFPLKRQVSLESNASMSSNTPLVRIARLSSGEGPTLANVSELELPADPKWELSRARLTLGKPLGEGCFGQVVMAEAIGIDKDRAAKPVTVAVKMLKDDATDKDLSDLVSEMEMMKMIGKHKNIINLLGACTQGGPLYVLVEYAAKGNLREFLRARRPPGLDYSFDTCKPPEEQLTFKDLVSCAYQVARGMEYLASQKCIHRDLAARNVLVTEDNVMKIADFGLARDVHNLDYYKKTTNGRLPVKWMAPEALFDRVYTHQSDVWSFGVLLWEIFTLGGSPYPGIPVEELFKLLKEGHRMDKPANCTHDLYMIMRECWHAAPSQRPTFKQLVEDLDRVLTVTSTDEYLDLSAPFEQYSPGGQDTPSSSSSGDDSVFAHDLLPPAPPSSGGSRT
wild-type un-phosphorylated FGFR2, sequence (P21802 22-821): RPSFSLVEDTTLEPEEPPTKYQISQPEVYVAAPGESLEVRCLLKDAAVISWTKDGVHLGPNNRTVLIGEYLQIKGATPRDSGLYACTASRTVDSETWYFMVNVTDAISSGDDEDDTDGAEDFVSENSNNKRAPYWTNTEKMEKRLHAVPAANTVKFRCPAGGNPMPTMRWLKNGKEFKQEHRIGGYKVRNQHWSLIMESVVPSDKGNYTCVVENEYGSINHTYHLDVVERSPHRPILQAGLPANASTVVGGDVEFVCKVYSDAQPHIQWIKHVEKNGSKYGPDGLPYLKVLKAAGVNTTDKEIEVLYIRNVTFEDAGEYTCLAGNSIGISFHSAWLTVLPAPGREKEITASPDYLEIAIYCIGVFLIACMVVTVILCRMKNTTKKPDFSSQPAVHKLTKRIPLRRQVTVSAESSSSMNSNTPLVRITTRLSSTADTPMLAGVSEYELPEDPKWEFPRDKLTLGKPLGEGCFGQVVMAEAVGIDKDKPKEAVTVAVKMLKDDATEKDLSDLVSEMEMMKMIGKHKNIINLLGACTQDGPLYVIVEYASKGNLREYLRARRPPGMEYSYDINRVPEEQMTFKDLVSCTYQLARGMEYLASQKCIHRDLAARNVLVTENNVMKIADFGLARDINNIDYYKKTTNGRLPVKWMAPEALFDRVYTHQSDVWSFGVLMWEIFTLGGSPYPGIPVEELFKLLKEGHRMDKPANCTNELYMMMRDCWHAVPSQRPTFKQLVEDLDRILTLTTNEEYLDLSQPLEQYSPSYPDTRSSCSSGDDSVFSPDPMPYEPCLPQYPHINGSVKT

`COc1cc2[nH]nc(-c3ccc(N4CCN(C)C(=O)C4)nc3)c2nc1-c1cccc(C)c1C` [Example 45, 4-(5-(5-(2,3-Dimethylphenyl)-6-methoxy-1H-pyrazolo[4,3-b]pyridin-3-yl)pyridin-2-yl)-1-methylpiperazin-2-one]: the values for the IC50 in test [1], in test [2] (setting [4]) and in test [3] were under 6 nM, over 100 nM and under 6 nM, respectively.
Regarding `COc1cc2[nH]nc(-c3ccc(N4CCC(O)CC4)nc3)c2nc1-c1cccc(C)c1C` [Example 46, 1-(5-(5-(2,3-Dimethylphenyl)-6-methoxy-1H-pyrazolo[4,3-b]pyridin-3-yl)pyridin-2-yl)piperidin-4-ol], the IC50 in test [1] is under 6 nM; in test [2] (setting [4]) it was over 100 nM; in test [3], under 6 nM.
For `[2H]C([2H])([2H])Oc1cc2[nH]nc(-c3ccc(N4CCN(C)CC4)nc3)c2nc1-c1cccc(C)c1C` [Example 48, 5-(2,3-Dimethylphenyl)-6-(methoxy-d3)-3-(6-(4-methylpiperazin-1-yl)pyridin-3-yl)-1H-pyrazolo[4,3-b]pyridine], the IC50 in test [1] was under 6 nM; in test [2] (setting [4]), 40 to 100 nM; in test [3], under 6 nM.
As to `COc1cc2[nH]nc(-c3ccc(N4CCC(C(=O)N(C)C)CC4)nc3)c2nc1-c1cccc(C)c1C` [Example 50, 1-(5-(5-(2,3-Dimethylphenyl)-6-methoxy-1H-pyrazolo[4,3-b]pyridin-3-yl)pyridin-2-yl)-N,N-dimethylpiperidine-4-carboxamide], the IC50 was under 6 nM in test [1], over 100 nM in test [2] (setting [4]) and under 6 nM in test [3].
With `COc1cc2[nH]nc(-c3ccc(N4CCC(C)(C(=O)O)CC4)nc3)c2nc1-c1cccc(C)c1C` [Example 51, 1-(5-(5-(2,3-Dimethylphenyl)-6-methoxy-1H-pyrazolo[4,3-b]pyridin-3-yl)pyridin-2-yl)-4-methylpiperidine-4-carboxylic acid], the IC50 in test [1] was under 6 nM; in test [2] (setting [4]), 40 to 100 nM; in test [3], under 6 nM.
`COc1cc2[nH]nc(-c3ccc(N4CCC5(CC4)CNC(=O)O5)nc3)c2nc1-c1cccc(C)c1C` [Example 65, 8-(5-(5-(2,3-Dimethylphenyl)-6-methoxy-1H-pyrazolo[4,3-b]pyridin-3-yl)pyridin-2-yl)-1-oxa-3,8-diazaspiro[4.5]decan-2-one]: the values for the IC50 in test [1], in test [2] (setting [4]) and in test [3] were under 6 nM, over 100 nM and under 6 nM, respectively.
Turning to `[2H]C([2H])([2H])c1cccc(-c2nc3c(-c4ccc(N5CCN(C)CC5)nc4)n[nH]c3cc2OC)c1C` [Example 68, 6-Methoxy-5-(2-methyl-3-(methyl-d3)phenyl)-3-(6-(4-methylpiperazin-1-yl)pyridin-3-yl)-1H-pyrazolo[4,3-b]pyridine], the IC50 in test [1] was under 6 nM; in test [2] (setting [4]), 40 to 100 nM; in test [3], under 6 nM.
Turning to `COc1cc2[nH]nc(-c3ccc(C4CCC(C(=O)O)CC4)nc3)c2nc1-c1cccc(C)c1C` (stereo not drawn) [Example 79, 4-(5-(5-(2,3-Dimethylphenyl)-6-methoxy-1H-pyrazolo[4,3-b]pyridin-3-yl)pyridin-2-yl)cyclohexane-1-carboxylic acid], the IC50 in test [1] is under 6 nM; in test [2] (setting [4]), 40 to 100 nM; in test [3], under 6 nM.
For the compound `COc1cc2[nH]nc(-c3ccc(N4C[C@@H](F)[C@@H](N)C4)nc3)c2nc1-c1cccc(C)c1C` [Example 80, (3S,4R)-1-(5-(5-(2,3-Dimethylphenyl)-6-methoxy-1H-pyrazolo[4,3-b]pyridin-3-yl)pyridin-2-yl)-4-fluoropyrrolidin-3-amine], the IC50 in test [1] is under 6 nM; in test [2] (setting [4]), 40 to 100 nM; in test [3], under 6 nM.
With `COc1cc2[nH]nc(-c3ccc(C4CCN(C(=O)CO)CC4)nc3)c2nc1-c1cccc2c1CC(F)C2` (stereo not drawn) [Example 82, 1-(4-(5-(5-(2-Fluoro-2,3-dihydro-1H-inden-4-yl)-6-methoxy-1H-pyrazolo[4,3-b]pyridin-3-yl)pyridin-2-yl)piperidin-1-yl)-2-hydroxyethan-1-one], the IC50 in test [1] is under 6 nM; in test [2] (setting [5]), 6 to 40 nM; in test [3] it was under 6 nM.
Take `COc1cc2[nH]nc(-c3ccc(N4CCN5C[C@H](O)C[C@H]5C4)nc3)c2nc1-c1cccc2c1CC(F)C2` (stereo partly drawn) [Example 83, (7R,8aS)-2-(5-(5-(2-Fluoro-2,3-dihydro-1H-inden-4-yl)-6-methoxy-1H-pyrazolo[4,3-b]pyridin-3-yl)pyridin-2-yl)octahydropyrrolo[1,2-a]pyrazin-7-ol]: the IC50 was under 6 nM in test [1], 6 to 40 nM in test [2] (setting [5]) and under 6 nM in test [3].
Take `COc1cc2[nH]nc(-c3ccc(N4CCS(=N)(=O)CC4)nc3)c2nc1-c1cccc(C)c1C` [Example 86, 4-(5-(5-(2,3-Dimethylphenyl)-6-methoxy-1H-pyrazolo[4,3-b]pyridin-3-yl)pyridin-2-yl)-1-imino-1λ^6-thiomorpholine 1-oxide]: the IC50 in test [1] is under 6 nM; in test [2] (setting [4]) it was over 100 nM; in test [3] it was under 6 nM.
For `COc1cc2[nH]nc(-c3ccc(N4CCN(CCO)CC4)nc3)c2nc1-c1cccc(CC#N)c1C` [Example 89, 2-(3-(3-(6-(4-(2-Hydroxyethyl)piperazin-1-yl)pyridin-3-yl)-6-methoxy-1H-pyrazolo[4,3-b]pyridin-5-yl)-2-methylphenyl)acetonitrile], the IC50 was under 6 nM in test [1], over 100 nM in test [2] (setting [4]) and under 6 nM in test [3].
Consider `COc1cc2[nH]nc(-c3ccc(N4CCN5C[C@H](O)C[C@H]5C4)nc3)c2nc1-c1cccc(OC)c1C` [Example 90, (7R,8aS)-2-(5-(6-Methoxy-5-(3-methoxy-2-methylphenyl)-1H-pyrazolo[4,3-b]pyridin-3-yl)pyridin-2-yl)octahydropyrrolo[1,2-a]pyrazin-7-ol], for which the figures for the IC50 in test [1], in test [2] (setting [4]) and in test [3] (setting [6]) were under 6 nM, over 100 nM and 6 to 40 nM, respectively.
`COc1cc2[nH]nc(-c3ccc(N4CCN5C[C@H](O)C[C@H]5C4)nc3)c2nc1-c1cccc2c1OCCO2` [Example 91, (7R,8aS)-2-(5-(5-(2,3-Dihydrobenzo[b][1,4]dioxin-5-yl)-6-methoxy-1H-pyrazolo[4,3-b]pyridin-3-yl)pyridin-2-yl)octahydropyrrolo[1,2-a]pyrazin-7-ol]: the IC50 in test [1] is under 6 nM; in test [2] (setting [4]) it was over 100 nM; in test [3] (setting [6]), 6 to 40 nM.
The corresponding values for `COc1cc2[nH]nc(-c3ccc(N4CCN5C[C@H](O)C[C@H]5C4)nc3)c2nc1-c1ccccc1C1CC1` [Example 92, (7R,8aS)-2-(5-(5-(2-Cyclopropylphenyl)-6-methoxy-1H-pyrazolo[4,3-b]pyridin-3-yl)pyridin-2-yl)octahydropyrrolo[1,2-a]pyrazin-7-ol] are under 6 nM, over 100 nM and 6 to 40 nM.
With `COc1cc2[nH]nc(-c3ccc(N4CCN5C[C@H](O)C[C@H]5C4)nc3)c2nc1-c1cccc2c1CCCO2` [Example 93, (7R,8aS)-2-(5-(5-(Chroman-5-yl)-6-methoxy-1H-pyrazolo[4,3-b]pyridin-3-yl)pyridin-2-yl)octahydropyrrolo[1,2-a]pyrazin-7-ol], the results for the IC50 in test [1], in test [2] (setting [4]) and in test [3] (setting [6]) were under 6 nM, over 100 nM and 6 to 40 nM, respectively.
